Experiments:
Assay in all cases: radiometric filter-binding kinase assay
[1] = test system: AKT1 (human), P31749 [S473D]
AURKA (human) = AURKA (human) (UniProt O14965)
BRSK1 (human) = BRSK1 (human) (UniProt Q8TDC3)
BTK (human) = BTK (human) (UniProt Q06187)
CAMKK2 (human) = CAMKK2 (human) (UniProt Q96RR4)
DAPK1 (human) = DAPK1 (human) (UniProt P53355)
DYRK3 (human) = DYRK3 (human) (UniProt O43781)
EPHA2 (human) = EPHA2 (human) (UniProt P29317)
ERBB4 (human) = ERBB4 (human) (UniProt Q15303)
INSR (human) = INSR (human) (UniProt P06213)
JAK2 JH1 JH2 (human) = JAK2 JH1 JH2 (human) (UniProt O60674)
LRRK2 (human) = LRRK2 (human) (UniProt Q5S007)
MAP3K11 (human) = MAP3K11 (human) (UniProt Q16584)
MAPK10 (human) = MAPK10 (human) (UniProt P53779)
MAPK11 (human) = MAPK11 (human) (UniProt Q15759)
MAPK14 (human) = MAPK14 (human) (UniProt Q16539)
MAPK3 (human) = MAPK3 (human) (UniProt P27361)
MARK1 (human) = MARK1 (human) (UniProt Q9P0L2)
MELK (human) = MELK (human) (UniProt Q14680)
MKNK1 (human) = MKNK1 (human) (UniProt Q9BUB5)
MKNK2 (human) = MKNK2 (human) (UniProt Q9HBH9)
MYLK (human) = MYLK (human) (UniProt Q15746)
NEK6 (human) = NEK6 (human) (UniProt Q9HC98)
NUAK1 (human) = NUAK1 (human) (UniProt O60285)
PAK6 (human) = PAK6 (human) (UniProt Q9NQU5)
PHKG1 (human) = PHKG1 (human) (UniProt Q16816)
PKN2 (human) = PKN2 (human) (UniProt Q16513)
PRKACA (human) = PRKACA (human) (UniProt P17612)
RPS6KA5 KD1 KD2 (human) = RPS6KA5 KD1 KD2 (human) (UniProt O75582)
SRPK1 (human) = SRPK1 (human) (UniProt Q96SB4)
[2] = target: STK11 CAB39 STRADA (human) (UniProt Q9Y376+Q7RTN6+Q15831)
SYK (human) = SYK (human) (UniProt P43405)
YES1 (human) = YES1 (human) (UniProt P07947)

Chain of AURKA (human) (O14965 whole entry, looked up): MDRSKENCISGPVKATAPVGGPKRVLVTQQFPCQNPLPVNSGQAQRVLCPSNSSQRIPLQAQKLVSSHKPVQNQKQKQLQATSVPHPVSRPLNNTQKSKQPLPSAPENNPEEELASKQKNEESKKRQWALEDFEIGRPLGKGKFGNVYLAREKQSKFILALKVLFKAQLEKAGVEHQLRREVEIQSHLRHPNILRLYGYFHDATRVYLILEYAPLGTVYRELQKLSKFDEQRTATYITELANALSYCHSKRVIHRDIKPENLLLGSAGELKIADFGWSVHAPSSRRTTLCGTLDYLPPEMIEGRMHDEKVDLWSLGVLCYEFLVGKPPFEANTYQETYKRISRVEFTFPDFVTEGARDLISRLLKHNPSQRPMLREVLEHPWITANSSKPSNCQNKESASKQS
Chain of MYLK (human) (Q15746 whole entry, looked up): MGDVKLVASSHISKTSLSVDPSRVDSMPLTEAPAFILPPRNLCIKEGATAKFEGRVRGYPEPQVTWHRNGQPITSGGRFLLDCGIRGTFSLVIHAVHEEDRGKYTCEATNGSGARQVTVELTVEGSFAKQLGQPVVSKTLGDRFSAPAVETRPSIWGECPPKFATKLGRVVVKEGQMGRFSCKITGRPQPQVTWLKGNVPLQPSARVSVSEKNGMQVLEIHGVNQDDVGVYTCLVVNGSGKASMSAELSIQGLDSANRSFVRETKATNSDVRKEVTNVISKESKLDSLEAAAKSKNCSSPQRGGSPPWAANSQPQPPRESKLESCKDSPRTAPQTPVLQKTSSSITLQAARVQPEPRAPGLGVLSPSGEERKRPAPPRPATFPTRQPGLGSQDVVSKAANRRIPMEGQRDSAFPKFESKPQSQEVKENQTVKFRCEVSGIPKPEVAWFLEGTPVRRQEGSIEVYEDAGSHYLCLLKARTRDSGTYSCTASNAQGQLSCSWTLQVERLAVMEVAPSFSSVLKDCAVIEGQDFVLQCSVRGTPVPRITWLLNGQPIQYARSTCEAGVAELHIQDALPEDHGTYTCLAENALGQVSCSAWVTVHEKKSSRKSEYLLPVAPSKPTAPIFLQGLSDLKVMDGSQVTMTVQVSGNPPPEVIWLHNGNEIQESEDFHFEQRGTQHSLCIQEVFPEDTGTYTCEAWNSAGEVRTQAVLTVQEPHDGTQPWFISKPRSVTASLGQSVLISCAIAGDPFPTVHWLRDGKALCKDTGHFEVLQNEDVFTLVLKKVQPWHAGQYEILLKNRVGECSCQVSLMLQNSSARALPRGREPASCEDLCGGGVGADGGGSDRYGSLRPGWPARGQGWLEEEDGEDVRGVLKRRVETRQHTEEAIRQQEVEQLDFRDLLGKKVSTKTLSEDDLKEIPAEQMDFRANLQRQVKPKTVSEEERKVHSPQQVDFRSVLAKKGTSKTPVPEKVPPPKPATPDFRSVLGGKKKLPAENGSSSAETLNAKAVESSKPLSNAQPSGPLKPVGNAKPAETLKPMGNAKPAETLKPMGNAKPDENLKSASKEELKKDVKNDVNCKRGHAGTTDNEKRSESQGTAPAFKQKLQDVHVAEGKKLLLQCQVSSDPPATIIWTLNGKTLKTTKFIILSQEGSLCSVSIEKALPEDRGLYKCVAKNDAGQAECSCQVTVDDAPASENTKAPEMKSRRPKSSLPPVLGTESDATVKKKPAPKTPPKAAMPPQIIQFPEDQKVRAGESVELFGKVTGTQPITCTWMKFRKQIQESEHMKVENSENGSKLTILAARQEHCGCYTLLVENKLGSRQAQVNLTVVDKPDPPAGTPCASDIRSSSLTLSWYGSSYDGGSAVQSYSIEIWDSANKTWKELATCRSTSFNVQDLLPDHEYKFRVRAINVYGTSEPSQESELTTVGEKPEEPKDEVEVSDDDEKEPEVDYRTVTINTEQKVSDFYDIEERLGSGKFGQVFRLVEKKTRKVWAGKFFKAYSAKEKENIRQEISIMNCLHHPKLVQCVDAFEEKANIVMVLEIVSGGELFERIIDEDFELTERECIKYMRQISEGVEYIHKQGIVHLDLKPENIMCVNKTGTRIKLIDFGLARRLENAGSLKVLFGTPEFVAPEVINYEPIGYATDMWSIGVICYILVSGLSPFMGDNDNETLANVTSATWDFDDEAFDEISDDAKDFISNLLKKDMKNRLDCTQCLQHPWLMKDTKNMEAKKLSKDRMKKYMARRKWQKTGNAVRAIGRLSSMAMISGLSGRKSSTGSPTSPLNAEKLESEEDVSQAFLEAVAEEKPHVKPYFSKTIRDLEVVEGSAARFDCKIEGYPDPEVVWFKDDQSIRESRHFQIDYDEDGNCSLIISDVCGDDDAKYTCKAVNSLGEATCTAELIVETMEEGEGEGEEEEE
Chain of MKNK2 (human) (Q9HBH9 whole entry, looked up): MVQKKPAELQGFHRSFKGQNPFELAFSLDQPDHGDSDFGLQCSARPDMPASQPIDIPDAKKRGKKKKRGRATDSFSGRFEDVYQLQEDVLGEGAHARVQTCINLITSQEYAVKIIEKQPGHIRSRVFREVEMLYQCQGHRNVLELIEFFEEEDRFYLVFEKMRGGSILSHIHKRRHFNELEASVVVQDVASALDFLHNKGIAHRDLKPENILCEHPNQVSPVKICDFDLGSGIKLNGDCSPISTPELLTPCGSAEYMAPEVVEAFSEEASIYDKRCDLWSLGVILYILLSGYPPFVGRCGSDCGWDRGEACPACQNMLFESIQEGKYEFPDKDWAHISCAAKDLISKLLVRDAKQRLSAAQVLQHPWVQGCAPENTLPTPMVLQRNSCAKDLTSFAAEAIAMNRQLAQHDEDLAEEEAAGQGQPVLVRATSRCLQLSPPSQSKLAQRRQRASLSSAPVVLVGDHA
Chain of NUAK1 (human) (O60285 whole entry, looked up): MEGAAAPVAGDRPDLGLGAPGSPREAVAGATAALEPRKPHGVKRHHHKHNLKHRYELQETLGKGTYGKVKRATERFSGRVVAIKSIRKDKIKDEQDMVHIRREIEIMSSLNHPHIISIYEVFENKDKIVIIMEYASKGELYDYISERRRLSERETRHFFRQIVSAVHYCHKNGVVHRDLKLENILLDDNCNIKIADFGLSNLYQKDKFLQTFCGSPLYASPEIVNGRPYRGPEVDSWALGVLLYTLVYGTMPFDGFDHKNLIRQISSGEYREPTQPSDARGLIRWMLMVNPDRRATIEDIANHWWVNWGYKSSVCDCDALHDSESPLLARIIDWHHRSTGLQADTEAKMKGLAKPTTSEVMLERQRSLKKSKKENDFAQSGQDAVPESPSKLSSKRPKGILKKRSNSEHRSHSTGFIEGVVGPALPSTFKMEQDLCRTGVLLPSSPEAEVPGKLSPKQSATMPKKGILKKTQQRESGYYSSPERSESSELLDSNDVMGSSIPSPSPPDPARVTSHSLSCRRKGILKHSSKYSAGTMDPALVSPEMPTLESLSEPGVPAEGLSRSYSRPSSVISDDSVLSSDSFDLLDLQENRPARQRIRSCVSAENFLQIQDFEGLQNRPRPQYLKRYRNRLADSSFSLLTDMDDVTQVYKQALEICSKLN
Chain of BRSK1 (human) (Q8TDC3 whole entry, looked up): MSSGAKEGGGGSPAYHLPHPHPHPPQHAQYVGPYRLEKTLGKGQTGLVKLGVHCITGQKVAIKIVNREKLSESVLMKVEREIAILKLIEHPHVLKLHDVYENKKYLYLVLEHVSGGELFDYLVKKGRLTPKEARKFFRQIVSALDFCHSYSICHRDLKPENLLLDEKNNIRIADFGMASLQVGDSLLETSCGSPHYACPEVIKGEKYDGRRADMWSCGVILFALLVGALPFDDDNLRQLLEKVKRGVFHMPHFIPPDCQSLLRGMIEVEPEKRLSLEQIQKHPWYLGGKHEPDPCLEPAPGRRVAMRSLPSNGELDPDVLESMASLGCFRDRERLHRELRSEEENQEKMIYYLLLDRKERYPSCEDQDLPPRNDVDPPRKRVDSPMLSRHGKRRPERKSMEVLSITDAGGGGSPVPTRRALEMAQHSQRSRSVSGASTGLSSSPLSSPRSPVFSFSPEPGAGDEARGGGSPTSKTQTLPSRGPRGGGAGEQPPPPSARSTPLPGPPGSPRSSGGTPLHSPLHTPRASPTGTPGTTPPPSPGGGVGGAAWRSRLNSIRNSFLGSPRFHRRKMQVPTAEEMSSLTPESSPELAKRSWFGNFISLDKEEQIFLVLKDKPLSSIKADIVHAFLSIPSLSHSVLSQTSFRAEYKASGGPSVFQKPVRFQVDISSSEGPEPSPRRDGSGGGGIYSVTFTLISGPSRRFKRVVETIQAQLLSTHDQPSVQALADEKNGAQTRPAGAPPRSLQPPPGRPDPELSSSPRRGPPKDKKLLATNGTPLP
Chain of RPS6KA5 KD1 KD2 (human) (O75582 whole entry, looked up): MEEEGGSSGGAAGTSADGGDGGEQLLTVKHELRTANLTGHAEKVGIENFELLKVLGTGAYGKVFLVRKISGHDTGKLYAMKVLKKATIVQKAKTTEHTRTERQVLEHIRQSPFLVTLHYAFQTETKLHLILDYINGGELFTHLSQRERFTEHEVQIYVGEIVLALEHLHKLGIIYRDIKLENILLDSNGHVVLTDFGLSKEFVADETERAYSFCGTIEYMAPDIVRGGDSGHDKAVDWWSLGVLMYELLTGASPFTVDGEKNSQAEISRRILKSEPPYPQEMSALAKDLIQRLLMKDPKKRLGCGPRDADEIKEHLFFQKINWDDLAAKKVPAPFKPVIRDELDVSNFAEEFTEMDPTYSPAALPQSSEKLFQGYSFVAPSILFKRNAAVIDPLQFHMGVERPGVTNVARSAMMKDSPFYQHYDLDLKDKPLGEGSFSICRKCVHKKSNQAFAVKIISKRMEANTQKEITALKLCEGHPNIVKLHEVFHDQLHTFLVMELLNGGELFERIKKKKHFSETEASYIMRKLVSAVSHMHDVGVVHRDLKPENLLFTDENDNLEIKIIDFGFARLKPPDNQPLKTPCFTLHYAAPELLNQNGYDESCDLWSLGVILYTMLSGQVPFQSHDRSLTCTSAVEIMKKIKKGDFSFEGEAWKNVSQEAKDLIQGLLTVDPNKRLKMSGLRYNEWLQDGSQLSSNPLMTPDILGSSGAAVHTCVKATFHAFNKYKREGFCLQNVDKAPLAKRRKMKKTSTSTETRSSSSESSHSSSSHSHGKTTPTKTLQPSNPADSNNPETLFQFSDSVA

Structure (SMILES): COc1cc(C(=O)N2CCC(N3CCN(C)CC3)CC2)ccc1Nc1ncc2c(n1)N(C)c1ccccc1C(=O)N2C
- residual activity ([1]; compound 1.0 µM): 71%
- residual activity ([1]; compound 10.0 µM): 81%
- IC50 (AURKA (human)): 1.2 µM
- residual activity (AURKA (human); compound 1.0 µM): 33%
- residual activity (AURKA (human); compound 10.0 µM): 5%
- residual activity (BRSK1 (human); compound 1.0 µM): 83%
- residual activity (BRSK1 (human); compound 10.0 µM): 78%
- residual activity (BTK (human); compound 1.0 µM): 95%
- residual activity (BTK (human); compound 10.0 µM): 75%
- residual activity (CAMKK2 (human); compound 1.0 µM): 89%
- residual activity (CAMKK2 (human); compound 10.0 µM): 53%
- residual activity (DAPK1 (human); compound 1.0 µM): 85%
- residual activity (DAPK1 (human); compound 10.0 µM): 77%
- residual activity (DYRK3 (human); compound 1.0 µM): 95%
- residual activity (DYRK3 (human); compound 10.0 µM): 96%
- residual activity (EPHA2 (human); compound 1.0 µM): 98%
- residual activity (EPHA2 (human); compound 10.0 µM): 91%
- residual activity (ERBB4 (human); compound 1.0 µM): 68%
- residual activity (ERBB4 (human); compound 10.0 µM): 72%
- residual activity (INSR (human); compound 1.0 µM): 104%
- residual activity (INSR (human); compound 10.0 µM): 103%
- residual activity (JAK2 JH1 JH2 (human); compound 1.0 µM): 74%
- residual activity (JAK2 JH1 JH2 (human); compound 10.0 µM): 80%
- IC50 (LRRK2 (human)): 0.013 µM
- residual activity (MAP3K11 (human); compound 1.0 µM): 94%
- residual activity (MAP3K11 (human); compound 10.0 µM): 84%
- residual activity (MAPK10 (human); compound 1.0 µM): 92%
- residual activity (MAPK10 (human); compound 10.0 µM): 109%
- residual activity (MAPK11 (human); compound 1.0 µM): 73%
- residual activity (MAPK11 (human); compound 10.0 µM): 45%
- residual activity (MAPK14 (human); compound 1.0 µM): 95%
- residual activity (MAPK14 (human); compound 10.0 µM): 96%
- residual activity (MAPK3 (human); compound 1.0 µM): 105%
- residual activity (MAPK3 (human); compound 10.0 µM): 104%
- residual activity (MARK1 (human); compound 1.0 µM): 89%
- residual activity (MARK1 (human); compound 10.0 µM): 93%
- residual activity (MELK (human); compound 1.0 µM): 88%
- residual activity (MELK (human); compound 10.0 µM): 92%
- residual activity (MKNK1 (human); compound 1.0 µM): 86%
- residual activity (MKNK1 (human); compound 10.0 µM): 53%
- IC50 (MKNK2 (human)): 7.2 µM
- residual activity (MKNK2 (human); compound 1.0 µM): 72%
- residual activity (MKNK2 (human); compound 10.0 µM): 22%
- IC50 (MYLK (human)): 12.2 µM
- residual activity (MYLK (human); compound 1.0 µM): 76%
- residual activity (MYLK (human); compound 10.0 µM): 25%
- residual activity (NEK6 (human); compound 1.0 µM): 90%
- residual activity (NEK6 (human); compound 10.0 µM): 110%
- IC50 (NUAK1 (human)): 5 µM
- residual activity (NUAK1 (human); compound 1.0 µM): 50%
- residual activity (NUAK1 (human); compound 10.0 µM): 19%
- residual activity (PAK6 (human); compound 1.0 µM): 94%
- residual activity (PAK6 (human); compound 10.0 µM): 89%
- residual activity (PHKG1 (human); compound 1.0 µM): 98%
- residual activity (PHKG1 (human); compound 10.0 µM): 59%
- residual activity (PKN2 (human); compound 1.0 µM): 74%
- residual activity (PKN2 (human); compound 10.0 µM): 80%
- residual activity (PRKACA (human); compound 1.0 µM): 79%
- residual activity (PRKACA (human); compound 10.0 µM): 93%
- residual activity (RPS6KA5 KD1 KD2 (human); compound 1.0 µM): 79%
- residual activity (RPS6KA5 KD1 KD2 (human); compound 10.0 µM): 84%
- residual activity (SRPK1 (human); compound 1.0 µM): 98%
- residual activity (SRPK1 (human); compound 10.0 µM): 110%
- residual activity ([2]; compound 1.0 µM): 78%
- residual activity ([2]; compound 10.0 µM): 78%
- residual activity (SYK (human); compound 1.0 µM): 71%
- residual activity (SYK (human); compound 10.0 µM): 63%
- residual activity (YES1 (human); compound 1.0 µM): 86%
- residual activity (YES1 (human); compound 10.0 µM): 82%

Reference: the kinase profiling compilation of Christmann-Franck et al. (2016)
